Results published in ChEMBL document CHEMBL4715788, “Hit-to-Lead Optimization of Mouse Trace Amine Associated Receptor 1 (mTAAR1) Agonists with a Diphenylmethane-Scaffold: Design, Synthesis, and Biological Study” (J Med Chem, 2016).
Active and inactive are the calls of the source. The rule behind the calls is not given here.

Assays:
[1] = target: Trace amine-associated receptor 1 (Mus musculus) (UniProt Q923Y8); experiment: Agonist activity at mouse TAAR1 expressed in HEK293T cells assessed as induction of cAMP production by BRET assay relative to control; assay type: functional, cell-based; conditions: filed as agonist
Trace amine-associated receptor 1 (Mus musculus), sequence (Q923Y8 whole entry): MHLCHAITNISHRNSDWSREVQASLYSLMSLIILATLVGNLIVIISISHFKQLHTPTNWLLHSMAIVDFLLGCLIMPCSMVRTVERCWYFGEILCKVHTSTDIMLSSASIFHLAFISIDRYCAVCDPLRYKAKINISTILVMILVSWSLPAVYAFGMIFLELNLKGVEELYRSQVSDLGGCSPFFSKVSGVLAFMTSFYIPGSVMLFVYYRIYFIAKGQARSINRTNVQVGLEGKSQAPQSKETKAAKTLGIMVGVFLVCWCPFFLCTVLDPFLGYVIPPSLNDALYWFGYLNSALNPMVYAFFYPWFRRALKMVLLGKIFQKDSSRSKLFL

[2] = target: Trace amine-associated receptor 1 (Mus musculus, UniProt Q923Y8); experiment: Agonist activity at mouse TAAR1 expressed in HEK293T cells assessed as induction of cAMP production by BRET assay; assay type: functional, cell-based
Trace amine-associated receptor 1, sequence (Q923Y8 whole entry): as above

[3] = tested on: Mus musculus; experiment: Increase in plasma glycaemia in CD1 mouse at 4.0 ug/kg, ip measured after 15 mins; assay type: functional, organism-based
[4] = tested on: HepG2; experiment: Increase in glucose production in human HepG2 cells at incubated for 4 hrs by colorimetric glucose assay; assay type: functional, cell-based
[5] = tested on: HepG2; experiment: Inhibition of glucose production in human HepG2 cells at 10 uM incubated for 4 hrs by colorimetric glucose assay; assay type: functional, cell-based
[6] = tested on: HepG2; experiment: Increase in glucose production in human HepG2 cells at 0.1 to 1 uM incubated for 4 hrs by colorimetric glucose assay; assay type: functional, cell-based; conditions: dose 0.1-1 µM
[7] = tested on: HepG2; experiment: Hyperglycemic activity in human HepG2 cells incubated for 4 hrs by colorimetric glucose assay; assay type: functional, cell-based; conditions: HepG2, 4 h

SMILES | Efficacy [1] [%] | EC50 [2] [nM] | also measured
Cc1cc(CCN)ccc1-c1ccc(N)cc1 | 100 | 1180 | 
Cc1cc(CCN)ccc1Cc1ccc(N)cc1 | 100 | 119 | Activity [3]: Active; Activity [4]: Dose-dependent effect
Cc1cc(OCCN)cc(C)c1Cc1ccc(N)cc1 | 100 | 134 | 
CCNc1ccc(Cc2ccc(CCN)cc2C)cc1C(C)C | 100 | 102 | 
Cc1cc(CCN)ccc1Cc1ccc(O)cc1 | 100 | 98 | Activity [3]: Active; inhibition [5]: Active; Activity [6]: Active
Cc1cc(CCN)cc(C)c1Cc1ccc(N)cc1 | 100 | 158 | 
CCN(C(C)=O)c1ccc(Cc2ccc(CCNC(C)=O)cc2C)cc1C(C)C | 100 | > 10000 | 
Cc1cc(CCN)cc(C)c1-c1ccc(N)cc1 | 100 | 633 | 
CC(=O)Nc1ccc(Cc2ccc(CCN)cc2C)cc1 | 100 | 3100 | 
CC(=O)NCCOc1ccc(Cc2ccc(NC(C)=O)cc2)c(C)c1 |  | > 10000 | 
CC(=O)Nc1ccc(Cc2ccc(OCCNC(=N)NC(=N)N)cc2C)cc1 |  | > 10000 | 
NCCc1ccc(Oc2ccc(O)cc2)c(I)c1 |  |  | EC50 [7]: 840 nM
CC(=O)Nc1ccc(Cc2ccc(OCCN)cc2)cc1 |  | > 10000 | 
CCN(C(C)=O)c1ccc(Cc2ccc(CCN)cc2C)cc1C(C)C | 100 | 440 | 
CC(=O)Nc1ccc(Cc2ccc(OCCN)cc2C)cc1 |  | > 10000 | 
Cc1cc(OCCNC(=N)NC(=N)N)ccc1Cc1ccc(N)cc1 |  | > 10000 | 
CC(=O)NCCOc1ccc(Cc2ccc(NC(C)=O)cc2)cc1 |  | > 10000 | 
